For two compounds, MIC results are on record in EP2812315B1, “PYRROLIC DERIVATIVES, PROCESSES FOR PREPARING THE SAME AND THEIR USES AS A DRUG” (Universite Joseph Fourier, priority 2012, dated 2013).

Converted amounts (≈) assume the structure as drawn.

Common to all, as to test: Other MIC determination, microdilution method (CLSI M07-A9) with modifications
Common to all, as to type: cell-based
For orientation: Dilution methods test growth across graded concentrations, often in twofold steps.

The test system of experiment [1] is Staphylococcus simulans (CHUG-Ssim1). The note with it: clinical strain. On the procedure:
(§1) The microdilution method recommended by the Clinical and Laboratory Standard Institute [M07-A9, Vol.32, N°2] was used with the following modifications.
(§2) Bacterial inocula were prepared in Mueller Hinton broth (MH2, BioMérieux, Marcy L'Etoile, France). They were dispensed in 96 well microtiter plates (10^6 CFU/ml of final inoculum, 192 µL per well).
(§3) To avoid cross-contaminations in microtiter plates, one row was left blank between each strain tested. Microplates were incubated for 18h at 37 °C in ambient air. Then MICs were read visually and, in case of visual reading difficulties, confirmed using a spectrophotometer at a wavelength of 630 nm (BioTek® EL808 Absorbance Microplate Reader). MICs corresponded to the minimum pyrrolic compound concentrations that allowed complete visual growth inhibition of bacteria. Drug-free cultures served as growth controls.
(§4) We used four Staphylococcus aureus strains. Two reference strains were provided by the French reference center for Staphylococcus spp. (Lyon, France), including one methicillin-susceptible (MSSA 476) and one methicillin-resistant (MRSA 252) S. aureus strains. The two remaining S. aureus strains were purchased from the CRBIP (Centre de Ressources Biologiques de l'Institut Pasteur): a vancomycin-intermediate strain (ATCC 106414) and a S. aureus strain (SA-1199B) resistant to fluoroquinolones due to overexpression of the NorA multidrug efflux pump. Coagulase-negative Staphylococcus strains included three reference strains purchased from CRBIP: a methicillin-susceptible S. epidermidis strain (ATCC 12228), a methicillin-resistant S. epidermidis strain (ATCC 49461), and a methicillin-susceptible S. sciuri strain (ATCC 29061). We also used 37 clinical strains belonging to the following coagulase-negative Staphylococcus species: S. arlettae (two strains), S. capitis (nine strains), S. epidermidis (one strain), S. haemolyticus (six strains), S. hominis (eight strains), S. lugdunensis (one strain), S. massiliensis (one strain), S. pettenkoferi (two strains), S. saprophyticus (two strains), S. simulans (one strain), and S. warneri (four strains) . Identification of the clinical strains was first obtained using VITEK® 2 System (Biomérieux) and confirmed by amplification and sequencing of the tuf gene (Reference: Bergeron, M., O. Dauwalder, M. Gouy, A.-M. Freydiere, M. Bes, H. Meugnier, Y. Benito, J. Etienne, G. Lina, F. Vandenesch, and S. Boisset. Species identification of staphylococci by amplification and sequencing of the tuf gene compared to the gap gene and by matrix-assisted laser desorption ionization time-of-flight mass spectrometry, Eur. J. Clin. Microbial. Infect. Dis. 2011, 30, 343-354).
(§5) The activity of the pyrrolic compounds 3c and 3i was further tested against 32 clinical strains belonging to 11 coagulase-negative Staphylococcus species.

Experiment [2] has as its system Staphylococcus hominis (CHUG-Shom6). The note with it: clinical strain. On the procedure: as §1, §2, §3, §4, §5
Experiment [3] relates to Staphylococcus capitis (CHUG-Scapi7). The note with it: clinical strain. On the procedure: as §1, §2, §3, §4, §5
For experiment [4], the system named is Staphylococcus warneri (CHUG-Swar2). The note with it: clinical strain. Here is the method:
as §1, §2, §3, §4, §5

The test system of experiment [5] is Staphylococcus saprophyticus (CHUG-Ssap2). The note with it: clinical strain. On the procedure:
as §1, §2, §3, §4, §5

Experiment [6] concerns Staphylococcus haemolyticus (CHUG-Shae2). On the procedure: as §1, §2, §3, §4, §5
Experiment [7] concerns Staphylococcus capitis (CHUG-Scapi4). The note with it: clinical strain. Here is the method: as §1, §2, §3, §4, §5
Experiment [8] concerns Staphylococcus hominis (CHUG-Shom5). The note with it: clinical strain. Here is the method: as §1, §2, §3, §4, §5
Experiment [9] has as its system Staphylococcus arlettae (CHUG-Sarl1). The note with it: clinical strain. Here is the method:
as §1, §2, §3, §4, §5

Experiment [10] relates to Staphylococcus haemolyticus (CHUG-Shae3). Here is the method: as §1, §2, §3, §4, §5
The test system of experiment [11] is Staphylococcus hominis (CHUG-Shom2). The note with it: clinical strain. Here is the method:
as §1, §2, §3, §4, §5

For experiment [12], the system named is Staphylococcus hominis (CHUG-Shom7). The note with it: clinical strain. Here is the method: as §1, §2, §3, §4, §5
The subject of experiment [13] is Staphylococcus massiliensis (CHUG-Smas1). The note with it: clinical strain. On the procedure: as §1, §2, §3, §4, §5
Experiment [14] has as its system Staphylococcus epidermidis (CHUG-Sepi1). The note with it: clinical strain. Here is the method:
as §1, §2, §3, §4, §5

Experiment [15] concerns Staphylococcus capitis (CHUG-Scapi10). The note with it: clinical strain. On the procedure: as §1, §2, §3, §4, §5
Experiment [16] deals with Staphylococcus saprophyticus (CHUG-Ssap1). The note with it: clinical strain. On the procedure:
as §1, §2, §3, §4, §5

For experiment [17], the system named is Staphylococcus hominis (CHUG-Shom3). The note with it: clinical strain. On the procedure:
as §1, §2, §3, §4, §5

Experiment [18] deals with Staphylococcus lugdunensis (CHUG-Slug1). The note with it: clinical strain. On the procedure: as §1, §2, §3, §4, §5
In experiment [19] the test system is Staphylococcus capitis (CHUG-Scapi5). The note with it: clinical strain. Here is the method: as §1, §2, §3, §4, §5
The subject of experiment [20] is Staphylococcus capitis (CHUG-Scapi3). The note with it: clinical strain. On the procedure:
as §1, §2, §3, §4, §5

Experiment [21] relates to Staphylococcus capitis (CHUG-Scapi9). The note with it: clinical strain. Here is the method:
as §1, §2, §3, §4, §5

The subject of experiment [22] is Staphylococcus haemolyticus (CHUG-Shae4). Here is the method:
as §1, §2, §3, §4, §5

In experiment [23] the test system is Staphylococcus warneri (CHUG-Swar3). The note with it: clinical strain. On the procedure: as §1, §2, §3, §4, §5

As a reminder, the MIC is the smallest concentration in the dilution series that meets the test's criterion for growth inhibition. The low end stands for greater potency, the high end for weaker potency. Turning to `CC(=O)c1c(C)[nH]c(C(c2[nH]c(C)c(C(C)=O)c2C)c2csc3ccccc23)c1C` [3i], the MIC in experiment [1] is more than 32 µg/mL; in experiment [2] it was more than 32 µg/mL; in experiment [3], 1 µg/mL (≈ 2.39 µM); in experiment [4], 1 µg/mL (≈ 2.39 µM); in experiment [5], 8 µg/mL (≈ 19.1 µM); in experiment [6], 8 µg/mL (≈ 19.1 µM). The minimum inhibitory concentration (MIC) in experiment [7] is 1 µg/mL (≈ 2.39 µM); in experiment [8], 16 µg/mL (≈ 38.2 µM); in experiment [9], more than 16 µg/mL; in [10] it was 4 µg/mL (≈ 9.56 µM); in experiment [11], more than 16 µg/mL; in experiment [12], 8 µg/mL (≈ 19.1 µM). In addition, the MIC in experiment [13] was more than 16 µg/mL; in experiment [14] it was more than 32 µg/mL; in experiment [15], 2 µg/mL (≈ 4.78 µM); in experiment [16], 8 µg/mL (≈ 19.1 µM); in [17], more than 32 µg/mL; in experiment [18], more than 16 µg/mL. Also, the MIC in [19] was 2 µg/mL (≈ 4.78 µM); in [20], 1 µg/mL (≈ 2.39 µM); in [21], 2 µg/mL (≈ 4.78 µM); in experiment [22], 4 µg/mL (≈ 9.56 µM); in experiment [23], 1 µg/mL (≈ 2.39 µM).

With `CC(=O)c1c(C)[nH]c(C(c2ccc(Cl)cc2)c2[nH]c(C)c(C(C)=O)c2C)c1C` [3c], the minimum inhibitory concentration (MIC) was more than 32 µg/mL in [1]; more than 32 µg/mL in experiment [2]; 8 µg/mL (≈ 20.2 µM) in experiment [3]; 8 µg/mL (≈ 20.2 µM) in experiment [4]; more than 32 µg/mL in experiment [5]; more than 32 µg/mL in experiment [6]. Further, the minimal inhibitory concentration (MIC) in experiment [7] was 4 µg/mL (≈ 10.1 µM); in [8] it was 8 µg/mL (≈ 20.2 µM); in experiment [9], more than 32 µg/mL; in experiment [10], 16 µg/mL (≈ 40.3 µM); in experiment [11], more than 32 µg/mL; in [12], more than 32 µg/mL. For the same compound, the MIC in experiment [13] was more than 32 µg/mL; in [14], 8 µg/mL (≈ 20.2 µM); in experiment [15] it was 8 µg/mL (≈ 20.2 µM); in [16] it was more than 32 µg/mL; in experiment [17], more than 32 µg/mL; in experiment [18] it was more than 32 µg/mL. For the same compound, the minimum inhibitory concentration (MIC) in experiment [19] worked out at 8 µg/mL (≈ 20.2 µM); in [20] it was 8 µg/mL (≈ 20.2 µM); in [21], 8 µg/mL (≈ 20.2 µM); in experiment [22], 16 µg/mL (≈ 40.3 µM); in experiment [23] it was 8 µg/mL (≈ 20.2 µM).
